The source of these data is PubChem BioAssay AID1259407 (Chemical Carcinogenesis Research Information System (CCRIS), 2018).

“Also recorded” adds a separate entry of the source. The source made the active and inactive calls. The rule behind the calls is not given here.

For this data set, the system named is CCRIS mutagenicity, Ames/micronucleus/aberration tests. The experiment in a line: CCRIS mutagenicity studies.

For the compound `Brc1c(Br)c(Br)c(Oc2c(Br)c(Br)c(Br)c(Br)c2Br)c(Br)c1Br`, the mutagenic call reads like this: (End Point: IN VITRO CHROMOSOMAL ABERRATIONS, Test System: CHO CELLS, Metabolic Activation: NONE) “inactive; negative; precipitation occurred at 160 and 500 ug/ml; also recorded: inactive; negative; precipitation occurred at 250 and 500 ug/ml”; (End Point: IN VITRO CHROMOSOMAL ABERRATIONS, Test System: CHO CELLS, Metabolic Activation: RAT, LIVER, S-9, AROCLOR 1254) “inactive; negative; precipitation occurred at 250 and 500 ug/ml”; (Test System: AMES SALMONELLA TYPHIMURIUM, Strain/Indicator: TA98, Metabolic Activation: HAMSTER, LIVER, S-9, AROCLOR 1254, Method: PREINCUBATION) “inactive; negative”; (Test System: AMES SALMONELLA TYPHIMURIUM, Strain/Indicator: TA98, Metabolic Activation: NONE, Method: PREINCUBATION) “inactive; negative”; (Test System: AMES SALMONELLA TYPHIMURIUM, Strain/Indicator: TA98, Metabolic Activation: RAT LIVER S-9, PHENOBARBITAL AND BETA-NAPHTHOFLAVONE, Method: PREINCUBATION) “inactive; negative”; (Test System: AMES SALMONELLA TYPHIMURIUM, Strain/Indicator: TA98, Metabolic Activation: RAT, LIVER, S-9, AROCLOR 1254, Method: PREINCUBATION) “inactive; negative”. The mutagenic call (Test System: AMES SALMONELLA TYPHIMURIUM, Strain/Indicator: TA100, Metabolic Activation: HAMSTER, LIVER, S-9, AROCLOR 1254, Method: PREINCUBATION) is “inactive; negative”; the mutagenic call (Test System: AMES SALMONELLA TYPHIMURIUM, Strain/Indicator: TA100, Metabolic Activation: NONE, Method: PREINCUBATION) is “inactive; negative”; the mutagenic call (Test System: AMES SALMONELLA TYPHIMURIUM, Strain/Indicator: TA100, Metabolic Activation: RAT LIVER S-9, PHENOBARBITAL AND BETA-NAPHTHOFLAVONE, Method: PREINCUBATION) is “inactive; negative”; the mutagenic call (Test System: AMES SALMONELLA TYPHIMURIUM, Strain/Indicator: TA100, Metabolic Activation: RAT, LIVER, S-9, AROCLOR 1254, Method: PREINCUBATION) is “inactive; negative”; the mutagenic call (Test System: AMES SALMONELLA TYPHIMURIUM, Strain/Indicator: TA1535, Metabolic Activation: HAMSTER, LIVER, S-9, AROCLOR 1254, Method: PREINCUBATION) is “inactive; negative”; the mutagenic call (Test System: AMES SALMONELLA TYPHIMURIUM, Strain/Indicator: TA1535, Metabolic Activation: NONE, Method: PREINCUBATION) was “inactive; negative”. For the same compound, the mutagenic call was “inactive; negative” (Test System: AMES SALMONELLA TYPHIMURIUM, Strain/Indicator: TA1535, Metabolic Activation: RAT LIVER S-9, PHENOBARBITAL AND BETA-NAPHTHOFLAVONE, Method: PREINCUBATION); “inactive; negative” (Test System: AMES SALMONELLA TYPHIMURIUM, Strain/Indicator: TA1535, Metabolic Activation: RAT, LIVER, S-9, AROCLOR 1254, Method: PREINCUBATION); “inactive; negative” (Test System: AMES SALMONELLA TYPHIMURIUM, Strain/Indicator: TA1537, Metabolic Activation: HAMSTER, LIVER, S-9, AROCLOR 1254, Method: PREINCUBATION); “inactive; negative” (Test System: AMES SALMONELLA TYPHIMURIUM, Strain/Indicator: TA1537, Metabolic Activation: NONE, Method: PREINCUBATION); “inactive; negative” (Test System: AMES SALMONELLA TYPHIMURIUM, Strain/Indicator: TA1537, Metabolic Activation: RAT LIVER S-9, PHENOBARBITAL AND BETA-NAPHTHOFLAVONE, Method: PREINCUBATION); “inactive; negative” (Test System: AMES SALMONELLA TYPHIMURIUM, Strain/Indicator: TA1537, Metabolic Activation: RAT, LIVER, S-9, AROCLOR 1254, Method: PREINCUBATION). In addition, the mutagenic call (Test System: CHO/HGPRT, Strain/Indicator: CHO/GIEMSA, Metabolic Activation: NONE, Method: STANDARD PLATE) is “inactive; negative”; the mutagenic call (Test System: CHO/HGPRT, Strain/Indicator: CHO/GIEMSA, Metabolic Activation: RAT, LIVER, S-9, AROCLOR 1254, Method: STANDARD PLATE) was “inactive; negative”; the mutagenic call (Test System: E.COLI, Strain/Indicator: WP2UVRA/PKM101, Metabolic Activation: NONE, Method: PREINCUBATION) is “inactive; negative”; the mutagenic call (Test System: E.COLI, Strain/Indicator: WP2UVRA/PKM101, Metabolic Activation: RAT LIVER S-9, PHENOBARBITAL AND BETA-NAPHTHOFLAVONE, Method: PREINCUBATION) was “inactive; negative”; the mutagenic call (Test System: MOUSE LYMPHOMA, Strain/Indicator: L5178Y (TK+/TK-), Metabolic Activation: NONE, Method: SUSPENSION/PLATE) is “inactive; negative”; the mutagenic call (Test System: MOUSE LYMPHOMA, Strain/Indicator: L5178Y (TK+/TK-), Metabolic Activation: RAT, LIVER, S-9, AROCLOR 1254, Method: SUSPENSION/PLATE) is “inactive; negative”.
With `Nc1ccc(N)c2c1C(=O)c1cccc([N+](=O)[O-])c1C2=O`, the mutagenic call (Test System: AMES SALMONELLA TYPHIMURIUM, Strain/Indicator: TA98, Metabolic Activation: NONE, Method: STANDARD PLATE) is “active; positive”; the mutagenic call (Test System: AMES SALMONELLA TYPHIMURIUM, Strain/Indicator: TA98, Metabolic Activation: RAT, LIVER, S-9, AROCLOR 1254, Method: STANDARD PLATE) is “active; positive”; the mutagenic call (Test System: AMES SALMONELLA TYPHIMURIUM, Strain/Indicator: TA100, Metabolic Activation: NONE, Method: STANDARD PLATE) was “inactive; negative”; the mutagenic call (Test System: AMES SALMONELLA TYPHIMURIUM, Strain/Indicator: TA100, Metabolic Activation: RAT, LIVER, S-9, AROCLOR 1254, Method: STANDARD PLATE) is “inactive; negative”; the mutagenic call (Test System: AMES SALMONELLA TYPHIMURIUM, Strain/Indicator: TA1535, Metabolic Activation: NONE, Method: STANDARD PLATE) was “inactive; negative”; the mutagenic call (Test System: AMES SALMONELLA TYPHIMURIUM, Strain/Indicator: TA1535, Metabolic Activation: RAT, LIVER, S-9, AROCLOR 1254, Method: STANDARD PLATE) is “inactive; negative”. Besides, the mutagenic call runs as follows: (Test System: AMES SALMONELLA TYPHIMURIUM, Strain/Indicator: TA1537, Metabolic Activation: NONE, Method: STANDARD PLATE) “active; positive”; (Test System: AMES SALMONELLA TYPHIMURIUM, Strain/Indicator: TA1537, Metabolic Activation: RAT, LIVER, S-9, AROCLOR 1254, Method: STANDARD PLATE) “inactive; negative”; (Test System: AMES SALMONELLA TYPHIMURIUM, Strain/Indicator: TA1538, Metabolic Activation: NONE, Method: STANDARD PLATE) “active; positive”; (Test System: AMES SALMONELLA TYPHIMURIUM, Strain/Indicator: TA1538, Metabolic Activation: RAT, LIVER, S-9, AROCLOR 1254, Method: STANDARD PLATE) “active; positive”; (Test System: AMES SALMONELLA TYPHIMURIUM, Strain/Indicator: TA1978, Metabolic Activation: NONE, Method: STANDARD PLATE) “inactive; negative”.
`Cc1ccc2cc3ccc4ccccc4c3cc2c1`: the mutagenic call reads like this: (Test System: AMES SALMONELLA TYPHIMURIUM, Strain/Indicator: TA100, Metabolic Activation: RAT, INTACT HEPATOCYTES, AROCLOR 1254, Method: PREINCUBATION) “active; positive”; (Test System: AMES SALMONELLA TYPHIMURIUM, Strain/Indicator: TA100, Metabolic Activation: RAT, NADPH-FORTIFIED HOMOGENIZED HEPATOCYTES, AROCLOR 1254, Method: PREINCUBATION) “active; positive”; (Test System: AMES SALMONELLA TYPHIMURIUM, Strain/Indicator: TA100, Metabolic Activation: RAT, SONICATED HEPATOCYTES, AROCLOR 1254, Method: PREINCUBATION) “active; positive”.
